Data reported in paper PMC8519022, “Diarylethene‐Based Photoswitchable Inhibitors of Serine Proteases” (Angewandte Chemie (International Ed. in English), 2021).
*1 amine or outer side, *2 acyl side, *3 side chain or, on linkers, in order; H or OH if unused. Where a SMILES comes first, the peptide text is derived from it. Bridges are numbered along the chain shown (N, C = ends). Triazole bridges read from a SMILES are 1,4-linked. [ ]: non-standard residue; d: D form. X1 = Cc1sc(C(=O)[C@@H]2CCCN2[*:2])cc1C1=C(c2cc(C(=O)[*:1])sc2C)CCC1; Orn(N3) = [N-]=[N+]=NCCC[C@H](N)C(=O)O; Aha = [N-]=[N+]=NCC[C@H](N)C(=O)O; hCys = N[C@@H](CCS)C(=O)O; Pra = C#CC[C@H](N)C(=O)O

Assays:
trypsin = target: T1, trypsin (Bos taurus, UniProt P00760); details: for k H [M^−1 s^−1] (closed): pH 8.2
T1 sequence (P00760 24-246): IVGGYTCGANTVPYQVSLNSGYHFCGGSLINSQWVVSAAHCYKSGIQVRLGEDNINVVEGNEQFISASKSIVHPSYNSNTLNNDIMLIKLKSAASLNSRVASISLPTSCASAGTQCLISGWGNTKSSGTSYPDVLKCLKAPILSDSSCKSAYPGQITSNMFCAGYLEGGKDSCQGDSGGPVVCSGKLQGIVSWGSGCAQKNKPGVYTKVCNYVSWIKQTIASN
Protocol: Analysis of the proteolytic stability
Proteolytic stability of the peptides was characterized by determining hydrolysis rates (kH) by the action of trypsin in a 50 mM Tris–
HCl buffer, pH 8.2, supplemented with 25 mM CaCl2 and 0.005% Tween®20 at 22°C. The peptides at a concentration of 50 μM were
mixed with trypsin (0.5 μM) in a 2 mL total volume. At selected time intervals, 70 μL samples of the mixture were taken, quenched
by addition 130 μL 2% aqueous formic acid, and immediately analyzed by analytical HPLC. The kH values were calculated from the
time-dependent data assuming zero-order kinetics (zero-order kinetics applies due to the high substrate/enzyme ratio of 100 to 1).
For the fitting the linear part of the hydrolysis curve was taken excluding the last time point in which the entire peptide inhibitor was
analogues could hydrolyze at two positions: at the Lys (P1 position) of the inhibitory loop and after the stabilizing loop’s arginine
residue (P4 position).[S6] The ultimate product (i.e., cleaved at both positions) had, therefore, a MALDI-TOF-MS detectable mass
The identity of each peak was confirmed by MALDI -TOF-MS. Detection – 220 nm, hydrolysis time is indicated at each chromatogram.

[1] = target: T2, Bos taurus trypsin 1 (T1) (Bos taurus, UniProt P00760); assay: Trypsin inhibition, Ki by Lineweaver-Burk analysis; details: for K i (closed) /K i (open): ratio of ring-closed to ring-open isomer, T1;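 on all read-outs here: trypsin activity followed by spectrophotometric hydrolysis kinetics of the chromogenic substrate BAPNA in Tris buffer, Ki obtained from double-reciprocal Lineweaver–Burk plots at several substrate concentrations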
T2 sequence (P00760 24-246): T1 sequence (P00760 24-246)
Protocol: Protease inhibition assays
The inhibition of trypsin and α-chymotrypsin was investigated by two methods. First, the inhibition was determined at a fixed enzyme and substrate concentration, whereas the inhibitor concentration varied. By plotting the protease activity against an inhibitor’s concentration, IC50 (the half-maximal inhibitory concentration) was determined.
Lineweaver–Burk analysis (see below), the Ki values for all peptide inhibitors were determined with high accuracy.
All measurements were performed with p-nitroaniline-based chromogenic substrates (λabs = 405 nm) in 96-well microtiter plates using
EpochTM 2 microplate spectrophotometer. For trypsin measurements the Tris buffer (50 mM Tris-HCl, 25 mM CaCl2, 0.005% Tween®
For the measurements, a fresh 0.92 µM trypsin solution was prepared from the storage aliquot and kept on ice.
A stock solution of the substrate BAPNA (Nα-Benzoyl-DL-arginine 4-nitroanilide hydrochloride) at the concentration of 50 mM in
aqueous dimethyl sulfoxide (DMSO) (100 mg of BAPNA in 4.6 mL of DMSO:water mixture 1:1) was pre pared and stored at RT.
peptide solutions at the concentration of 100 µM, which was further diluted to 10, 1, or 0.1 µM if required, were prepared in Milli-Q®
deionized ultrapure water.
For the determination of IC50, a double dilution series of inhibit ors were prepared in a 96 -well plate (12 concentrations, two repeats
for each concentration, 200 µL of Tris buffer in each well). Subsequently, a trypsin solution (20 µL, 150 nM) was added to ea ch well
with the tested peptide and to the control row. Soluti ons in each well were intensely mixed using a multichannel pipette (from lower
concentration to higher). After a pre -incubation period (5 min), the substrate BAPNA was added to each well (20 µL, 25 mM).
solutions were thoroughly mixed with the multicha nnel pipette, and the kinetics of substrate hydrolysis was recorded with an interval
of 1 min between measurements over 20 min. The total volume in each well was 240 µL, final trypsin and BAPNA concentrations
were 12.5 nM and 2.08 mM, respectively. The mea n values of the two repeats of the slope of absorption vs. time curves were
calculated. The activities at different inhibitor concentrations were then calculated by taking the control curves’ slope val ues (no
inhibitor) as the 100% enzyme activity. The inh ibition activity IC 50 against α-chymotrypsin (α-chymotrypsin from bovine pancreas
type II) was measured in the same way except that a different substrate, Ac-EAPF-pNA (Ac-Glu-Ala-Pro-Phe-pNA), was used (20
Inhibitory constants Ki were determined by Lineweaver-Burk (LWB) double-reciprocal analysis according to a published protocol.[S5]
Briefly, a fresh inhibitor/enzyme mixture was prepared in a glass vial and distributed to 2x6 wells (200 µL in each well, enzyme
concentration after dilution 12 nM). An enzyme without an inhibitor was added to the control wells. Aliquots of varying substrate stock
solutions were added with a multichannel pipette to each well. For trypsin inhibition experiments, BAPNA (20 µL per well of 20, 22.7,
26, 29.8, 34, 40 mM) and for α-chymotrypsin Ac-EAPF-pNA (20 µL per well of 16, 12.48, 10, 8, 6.4, 5.44 mM) were used, respectively.
Well contents were thoroughly mixed using a multichannel pipette, and a plate reader was used to monitor the hydrolysis kinetics
(sampling interval of 1 min over 20 min).

[2] = Photostationary state under UV irradiation / photoconversion; type: physicochemical; details: deoxygenated water, 22 °C, continuous UV irradiation 320-400 nm; values with * by RP-HPLC
Protocol: Table S3 Photostationary states (PSS) for the studied peptides in deoxygenated water at 22 °C determined as the maximal conversion of the ring-open form to
ring-closed form under continuous UV irradiation (spectral range of 320-400 nm).
* As was determined by RP-HPLC analysis. […]

With `CC[C@H](C)[C@@H]1NC(=O)[C@@H]2CCCN2C(=O)[C@@H]2CCCN2C(=O)[C@H]([C@@H](C)CC)NC(=O)[C@H](CO)NC(=O)[C@H](CCCCN)NC(=O)[C@H]([C@@H](C)O)NC(=O)[C@@H]2CSSCC[C@H](NC1=O)C(=O)N[C@@H](CCCNC(=N)N)C(=O)N1CCC[C@H]1C(=O)c1cc(c(C)s1)C1=C(CCC1)c1cc(sc1C)C(=O)N[C@@H](Cc1ccccc1)C(=O)N2` [Peptide S5i] (FCTKSIPPI[hCys]R; disulfide 2-10; linker N-C via X1) the “k H (closed) /k H (open)” value (trypsin) was 1.7, the “k H [M^−1 s^−1] (closed)” value (trypsin) was 5.0±0.8×10^−3 M^−1 s^−1 and the Ki ([1]; K i [nM] (closed)) was 182 ± 16 nM. It also gave a Ki ([1]; K i [nM] (open)) of 102 ± 14 nM.
Work on `CC[C@H](C)[C@@H]1NC(=O)[C@@H]2CCCN2C(=O)[C@@H]2CCCN2C(=O)[C@H]([C@@H](C)CC)NC(=O)[C@H](CO)NC(=O)[C@H](CCCCN)NC(=O)[C@H]([C@@H](C)O)NC(=O)[C@@H]2CSSC[C@H](NC1=O)C(=O)N[C@@H](CCCNC(=N)N)C(=O)N1CCC[C@H]1C(=O)c1cc(c(C)s1)C1=C(CCC1)c1cc(sc1C)C(=O)N[C@@H](Cc1ccccc1)C(=O)N2` [Peptide S1i] (FCTKSIPPICR; disulfide 2-10; linker N-C via X1) yielded a Ki ([1]; K i [nM] (open)) of 13.4 ± 1.4 nM.
In the case of `CC[C@H](C)[C@@H]1NC(=O)[C@@H]2CCCN2C(=O)[C@@H]2CCCN2C(=O)[C@H]([C@@H](C)CC)NC(=O)[C@H](CO)NC(=O)[C@H](CCCCN)NC(=O)[C@H]([C@@H](C)O)NC(=O)[C@@H]2CSSC[C@H](NC1=O)C(=O)N[C@@H](Cc1ccccc1)C(=O)N1CCC[C@H]1C(=O)c1cc(c(C)s1)C1=C(CCC1)c1cc(sc1C)C(=O)N[C@@H](CCCNC(=N)N)C(=O)N2` [Peptide S1n] (RCTKSIPPICF; disulfide 2-10; linker N-C via X1), the Ki ([1]; K i [nM] (open)) is reported as 4.9 ± 0.3 nM.
In the case of `CC[C@H](C)[C@@H]1NC(=O)[C@@H]2CCCN2C(=O)[C@@H]2CCCN2C(=O)[C@H]([C@@H](C)CC)NC(=O)[C@H](CO)NC(=O)[C@H](CCCCN)NC(=O)[C@H]([C@@H](C)O)NC(=O)[C@@H]2Cc3cn(nn3)CCC[C@H](NC1=O)C(=O)N[C@@H](CCCNC(=N)N)C(=O)N1CCC[C@H]1C(=O)c1cc(c(C)s1)C1=C(CCC1)c1cc(sc1C)C(=O)N[C@@H](Cc1ccccc1)C(=O)N2` [Peptide S7i] (F[Pra]TKSIPPI[Orn(N3)]R; triazole 2-10; linker N-C via X1), the “k H (closed) /k H (open)” value (trypsin) is reported as 73, the “k H [M^−1 s^−1] (closed)” value (trypsin) is reported as 5.5±1×10^−1 M^−1 s^−1 and the Ki ([1]; K i [nM] (closed)) is reported as 7220 ± 360 nM. For the same compound, the Ki ([1]; K i [nM] (open)) was 263 ± 30 nM.
In the case of `CC[C@H](C)[C@@H]1NC(=O)[C@@H]2CCCN2C(=O)[C@@H]2CCCN2C(=O)[C@H]([C@@H](C)CC)NC(=O)[C@H](CO)NC(=O)[C@H](CCCCN)NC(=O)[C@H]([C@@H](C)O)NC(=O)[C@@H]2Cc3cn(nn3)CC[C@H](NC1=O)C(=O)N[C@@H](CCCNC(=N)N)C(=O)N1CCC[C@H]1C(=O)c1cc(c(C)s1)C1=C(CCC1)c1cc(sc1C)C(=O)N[C@@H](Cc1ccccc1)C(=O)N2` [Peptide S6i] (F[Pra]TKSIPPI[Aha]R; triazole 2-10; linker N-C via X1), the “PSS, % (maximal conversion of ring-open to ring-closed form)” value (from here on “PSS, %”) [2] is reported as 39.6%, the “k H (closed) /k H (open)” value (trypsin) is reported as 5.8 and the “k H [M^−1 s^−1] (closed)” value (trypsin) is reported as 1.1±0.2×10^−1 M^−1 s^−1. The Ki ([1]; K i [nM] (open)) was 441 ± 43 nM and the “K i (closed) /K i (open)” value [1] was 17.5.
With `CC[C@H](C)[C@@H]1NC(=O)[C@@H]2CCCN2C(=O)[C@@H]2CCCN2C(=O)[C@H]([C@@H](C)CC)NC(=O)[C@H](CO)NC(=O)[C@H](CCCCN)NC(=O)[C@H]([C@@H](C)O)NC(=O)[C@@H]2CSSCC[C@H](NC1=O)C(=O)N[C@@H](Cc1ccccc1)C(=O)N1CCC[C@H]1C(=O)c1cc(c(C)s1)C1=C(CCC1)c1cc(sc1C)C(=O)N[C@@H](CCCNC(=N)N)C(=O)N2` [Peptide S5n] (RCTKSIPPI[hCys]F; disulfide 2-10; linker N-C via X1) the “k H (closed) /k H (open)” value (trypsin) was 13.6, the “k H [M^−1 s^−1] (closed)” value (trypsin) was 3.4±0.5×10^−2 M^−1 s^−1 and the Ki ([1]; K i [nM] (closed)) was 231 ± 14 nM. For the same compound, the Ki ([1]; K i [nM] (open)) was 95 ± 6 nM.
With `CC[C@H](C)[C@@H]1NC(=O)[C@@H]2CCCN2C(=O)[C@@H]2CCCN2C(=O)[C@H]([C@@H](C)CC)NC(=O)[C@H](CO)NC(=O)[C@H](CCCCN)NC(=O)[C@H]([C@@H](C)O)NC(=O)[C@@H]2CSSC[C@H](NC1=O)C(=O)N[C@@H](Cc1ccccc1)C(=O)N[C@@H](CC(C)C)C(=O)N1CCC[C@H]1C(=O)c1cc(c(C)s1)C1=C(CCC1)c1cc(sc1C)C(=O)N[C@@H](CCCNC(=N)N)C(=O)N2` [Peptide S9n] (RCTKSIPPICFL; disulfide 2-10; linker N-C via X1) the “k H (closed) /k H (open)” value (trypsin) was 8.7, the “k H [M^−1 s^−1] (closed)” value (trypsin) was 1.3±0.1×10^−3 M^−1 s^−1 and the Ki ([1]; K i [nM] (closed)) was 55 ± 3.8 nM. It also gave a Ki ([1]; K i [nM] (open)) of 8.3 ± 0.6 nM.
With `CC[C@H](C)[C@@H]1NC(=O)[C@@H]2CCCN2C(=O)[C@@H]2CCCN2C(=O)[C@H]([C@@H](C)CC)NC(=O)[C@H](CO)NC(=O)[C@H](CCCCN)NC(=O)[C@H]([C@@H](C)O)NC(=O)[C@@H]2Cc3cn(nn3)CCC[C@H](NC1=O)C(=O)N[C@@H](Cc1ccccc1)C(=O)N1CCC[C@H]1C(=O)c1cc(c(C)s1)C1=C(CCC1)c1cc(sc1C)C(=O)N[C@@H](CCCNC(=N)N)C(=O)N2` [Peptide S7n] (R[Pra]TKSIPPI[Orn(N3)]F; triazole 2-10; linker N-C via X1) the “k H (closed) /k H (open)” value (trypsin) was 30.5, the “k H [M^−1 s^−1] (closed)” value (trypsin) was 6.1±1.2×10^−2 M^−1 s^−1 and the Ki ([1]; K i [nM] (closed)) was 2200 ± 214 nM. For the same compound, the Ki ([1]; K i [nM] (open)) was 63.4 ± 4.4 nM.
Work on `CC[C@H](C)[C@@H]1NC(=O)[C@@H]2CCCN2C(=O)[C@@H]2CCCN2C(=O)[C@H]([C@@H](C)CC)NC(=O)[C@H](CO)NC(=O)[C@H](CCCCN)NC(=O)[C@H]([C@@H](C)O)NC(=O)c2cc(c(C)s2)C2=C(CCC2)c2cc(sc2C)C(=O)[C@@H]2CCCN2C1=O` [Peptide S4] (TKSIPPI; linker N-C via X1) yielded a Ki ([1]; K i [nM] (open)) of 22 ± 3 nM.
With `CC[C@H](C)[C@@H]1NC(=O)[C@@H]2CCCN2C(=O)[C@@H]2CCCN2C(=O)[C@H]([C@@H](C)CC)NC(=O)[C@H](CO)NC(=O)[C@H](CCCCN)NC(=O)[C@H]([C@@H](C)O)NC(=O)[C@@H]2Cc3cn(nn3)CC[C@H](NC1=O)C(=O)N[C@@H](CCCNC(=N)N)C(=O)N[C@@H](CC(C)C)C(=O)N1CCC[C@H]1C(=O)c1cc(c(C)s1)C1=C(CCC1)c1cc(sc1C)C(=O)N[C@@H](C(C)C)C(=O)N[C@@H](Cc1ccccc1)C(=O)N2` [Peptide S11i] (VF[Pra]TKSIPPI[Aha]RL; triazole 3-11; linker N-C via X1) the “PSS, %” value [2] was 80.2%, the “k H (closed) /k H (open)” value (trypsin) was 3.3 and the “k H [M^−1 s^−1] (closed)” value (trypsin) was 9.1±1×10^−2 M^−1 s^−1. The Ki ([1]; K i [nM] (open)) was 1720 ± 130 nM and the “K i (closed) /K i (open)” value [1] was 3.1.
With `CC[C@H](C)[C@@H]1NC(=O)[C@@H]2CCCN2C(=O)[C@@H]2CCCN2C(=O)[C@H]([C@@H](C)CC)NC(=O)[C@H](CO)NC(=O)[C@H](CCCCN)NC(=O)[C@H]([C@@H](C)O)NC(=O)[C@@H]2Cc3cn(nn3)CC[C@H](NC1=O)C(=O)N[C@@H](Cc1ccccc1)C(=O)N1CCC[C@H]1C(=O)c1cc(c(C)s1)C1=C(CCC1)c1cc(sc1C)C(=O)N[C@@H](CCCNC(=N)N)C(=O)N2` [Peptide S6n] (R[Pra]TKSIPPI[Aha]F; triazole 2-10; linker N-C via X1) the “PSS, %” value [2] was 46.6%, the “k H (closed) /k H (open)” value (trypsin) was 3.7 and the “k H [M^−1 s^−1] (closed)” value (trypsin) was 2.5±0.8×10^−2 M^−1 s^−1. For the same compound, the Ki ([1]; K i [nM] (open)) was 135 ± 8 nM and the “K i (closed) /K i (open)” value [1] was 8.3.
For `CC[C@H](C)[C@@H]1NC(=O)[C@@H]2CCCN2C(=O)[C@@H]2CCCN2C(=O)[C@H]([C@@H](C)CC)NC(=O)[C@H](CO)NC(=O)[C@H](CCCCN)NC(=O)[C@H]([C@@H](C)O)NC(=O)[C@@H]2Cc3cn(nn3)CCC[C@H](NC1=O)C(=O)N[C@@H](CCCNC(=N)N)C(=O)N[C@@H](CC(C)C)C(=O)N1CCC[C@H]1C(=O)c1cc(c(C)s1)C1=C(CCC1)c1cc(sc1C)C(=O)N[C@@H](C(C)C)C(=O)N[C@@H](Cc1ccccc1)C(=O)N2` [Peptide S12i] (VF[Pra]TKSIPPI[Orn(N3)]RL; triazole 3-11; linker N-C via X1), the “k H (closed) /k H (open)” value (trypsin) was 3.0, the “k H [M^−1 s^−1] (closed)” value (trypsin) was 4.2±0.4×10^−2 M^−1 s^−1 and the Ki ([1]; K i [nM] (open)) was 2440 ± 215 nM.
`CC[C@H](C)[C@@H]1NC(=O)[C@@H]2CCCN2C(=O)[C@@H]2CCCN2C(=O)[C@H]([C@@H](C)CC)NC(=O)[C@H](CO)NC(=O)[C@H](CCCCN)NC(=O)[C@H]([C@@H](C)O)NC(=O)[C@H](C)NC(=O)c2cc(c(C)s2)C2=C(CCC2)c2cc(sc2C)C(=O)[C@@H]2CCCN2C(=O)[C@H](C)NC1=O` [Peptide S3] (ATKSIPPIA; linker N-C via X1) showed a Ki ([1]; K i [nM] (open)) of 101 ± 9 nM.
For `CC[C@H](C)[C@@H]1NC(=O)[C@@H]2CCCN2C(=O)[C@@H]2CCCN2C(=O)[C@H]([C@@H](C)CC)NC(=O)[C@H](CO)NC(=O)[C@H](CCCCN)NC(=O)[C@H]([C@@H](C)O)NC(=O)[C@@H]2CSSC[C@H](NC1=O)C(=O)N[C@@H](Cc1ccccc1)C(=O)N1CCC[C@H]1C(=O)c1cc(c(C)s1)C1=C(CCC1)c1cc(sc1C)C(=O)N[C@@H](C(C)C)C(=O)N[C@@H](CCCNC(=N)N)C(=O)N2` [Peptide S8n] (VRCTKSIPPICF; disulfide 3-11; linker N-C via X1), the “k H (closed) /k H (open)” value (trypsin) was 4.1, the “k H [M^−1 s^−1] (closed)” value (trypsin) was 5.3±1.4×10^−4 M^−1 s^−1 and the Ki ([1]; K i [nM] (closed)) was 125 ± 8 nM. The Ki ([1]; K i [nM] (open)) was 5.2 ± 0.4 nM.
